In patent publication US12024510B2, “Pyrazolopyridine-diamides, their use as insecticide and processes for preparing the same” (PI INDUSTRIES LTD., priority 2017, dated 2024):

Legend:
Assay type in all cases: in vivo
Spodoptera litura = Spodoptera litura diet incorporation method; settings: third instar larvae, dead and moribund combined, 96 h after release
Procedure: (§1) Test Solutions were Prepared According to the Procedure Described Herein Below (500 PPM):
(§2) • 1. Eppendorf Vortex mixer (ThermoMixer C) and 1.5 mL Eppendorf tubes • 2. Zirconia (Zirconium-Yttrium) beads having diameter of 0.8 to 1.0 mm • 3. Microscope • 4. Beaker 100 mL • 5. Micro-pipette Reagents: • 1. Surfactant Solution • 2. De-mineralized (DM) Water • 1. Weigh 10 mg of the compound of the present invention to be tested in an Eppendorf Tube. • 2. Add 200 mg of the Surfactant Solution into the tube. • 3. Add 600 mg of Zirconia beads into the above mixture. • 4. Fix the tube in Eppendorf Vortex mixer and start vortexing at 2000 rpm. • 5. Mix on Vortex mixer for 30 minutes. After 30 minutes, observe the sample over a microscope at 400× resolution. • 6. If the Maximum particle size is more than 5 μm or average particle size is more than 2 μm or the particle size distribution is uneven, continue vortexing for another 30 minutes and again check the particle size using the microscope. Continue till the average particle size is below 2 microns. • 7. When the required particle size is achieved, add 1.0 mL DM water into the tube, close the cap, shake the tube thoroughly and transfer the contents, along with the beads, into a beaker. • 8. To rinse the tube, add another 1.0 mL of DM water into the tube, close the cap, shake well and transfer this into the same beaker. • 9. Repeat Step no. 8 one more time so that the tube is rinsed well and the compound of the present invention to be tested is transferred to the beaker. • 10. Add 16.8 mL of DM water into the beaker and stir well. • 11. The homogeneous dispersion can then be decanted into a glass vial, immediately, to separate the Zirconia beads. • 12. Immediately use this sample for biological testing. • 13. Further dilutions can be prepared by taking appropriate quantity of the aliquot of Step 10, immediately after stirring, and diluting as per requirement. The sample solution must be well mixed just before biological testing.
(§3) Diet incorporation method was used, in which semi-synthetic diet was incorporated into the test solution when the temperature is approximately 50° C. in the bioassay containers and stirred thoroughly for properly mixing and then was allowed to cool for 30 min. The solidified diet was cut into equal pieces, and then each piece was transferred in one cell in Bio-assay trays. A single third instar starved larva was released into each of these cells of bioassay trays and the tray was covered with the lid. The bio-assay trays were kept under laboratory conditions at a temperature of 25° C. and Relative Humidity of 70%. Observations on dead, moribund and live larvae were recorded at 96 h after the release of larvae. Percent mortality was calculated by combining dead and moribund larvae. The following compound numbers

Plutella xylostella = assay: whole plant or invertebrate; settings: foliar, cabbage leaf dip, second instar larvae, dead and moribund combined, 72 h after release
In short: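 Leaf-dip bioassay: second-instar larvae, singly, fed on cabbage leaves dipped 10 s in test dispersion (bead-milled, diluted with 0.01% Triton-X to test concentration) and dried 20 min. Held at 25 °C, 70% RH; % mortality counts dead and moribund at 72 h.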

Helicoverpa armigera = Helicoverpa armigera diet incorporation method; settings: third instar larvae, dead and moribund combined, 96 h after release
Procedure: as §1, §2
as §3, with “which and” for “which”

Cc1cc2ccnn2c(C(=O)NCC2CCCO2)c1NC(=O)c1cc(Br)nn1-c1ncccc1Cl (racemic) [Compound 189, rac-(R)-6-(3-bromo-1-(3-chloropyridin-2-yl)-1H-pyrazole-5-carboxamido)-5-methyl-N-((tetrahydrofuran-2-yl)methyl)pyrazolo[1,5-a]pyridine-7-carboxamide]
mortality at 300 ppm (Spodoptera litura): > 70%
mortality at 300 ppm (Plutella xylostella): > 70%

COCCNC(=O)c1c(NC(=O)c2cc(OCC(F)(F)F)nn2-c2ncccc2Cl)c(C)cc2ccnn12 [Compound 17, 6-(1-(3-chloropyridin-2-yl)-3-(2,2,2-trifluoroethoxy)-1H-pyrazole-5-carboxamido)-N-(2-methoxyethyl)-5-methylpyrazolo[1,5-a]pyridine-7-carboxamide]
mortality at 300 ppm (Spodoptera litura): > 70%
mortality at 300 ppm (Plutella xylostella): > 70%

Cc1cc2ccnn2c(C(=O)NCCC#N)c1NC(=O)c1cc(OCC(F)(F)F)nn1-c1ncccc1Cl [Compound 47, 6-(1-(3-chloropyridin-2-yl)-3-(2,2,2-trifluoroethoxy)-1H-pyrazole-5-carboxamido)-N-(2-cyanoethyl)-5-methylpyrazolo[1,5-a]pyridine-7-carboxamide]
mortality at 300 ppm (Spodoptera litura): > 70%
mortality at 300 ppm (Plutella xylostella): > 70%

CCNC(=O)c1c(NC(=O)c2cc(N3CC(F)(F)C3)nn2-c2ncccc2Cl)c(C)cc2ccnn12 [Compound 83, 6-(1-(3-chloropyridin-2-yl)-3-(3,3-difluoroazetidin-1-yl)-1H-pyrazole-5-carboxamido)-N-ethyl-5-methylpyrazolo[1,5-a]pyridine-7-carboxamide]
mortality at 300 ppm (Spodoptera litura): > 70%

C=CCNC(=O)c1c(NC(=O)c2cc(N3CC(F)(F)C3)nn2-c2ncccc2Cl)c(C)cc2ccnn12 [Compound 86, N-allyl-6-(1-(3-chloropyridin-2-yl)-3-(3,3-difluoroazetidin-1-yl)-1H-pyrazole-5-carboxamido)-5-methylpyrazolo[1,5-a]pyridine-7-carboxamide]
mortality at 300 ppm (Spodoptera litura): > 70%

CCONC(=O)c1c(NC(=O)c2cc(Br)nn2-c2ncccc2Cl)c(C)cc2ccnn12 [Compound 106, 6-(3-bromo-1-(3-chloropyridin-2-yl)-1H-pyrazole-5-carboxamido)-N-ethoxy-5-methylpyrazolo[1,5-a]pyridine-7-carboxamide]
mortality at 300 ppm (Spodoptera litura): > 70%
mortality at 300 ppm (Plutella xylostella): > 70%

COc1cc(C(=O)Nc2c(C)cc3ccnn3c2C(=O)NCC(F)(F)F)n(-c2ncccc2Cl)n1 [Compound 110, 6-(1-(3-chloropyridin-2-yl)-3-methoxy-1H-pyrazole-5-carboxamido)-5-methyl-N-(2,2,2-trifluoroethyl)pyrazolo[1,5-a]pyridine-7-carboxamide]
mortality at 300 ppm (Spodoptera litura): > 70%
mortality at 300 ppm (Plutella xylostella): > 70%

CCNC(=O)c1c(NC(=O)c2cc(Br)nn2-c2ncccc2Cl)c(Cl)cc2ccnn12 [Compound 142, 6-(3-bromo-1-(3-chloropyridin-2-yl)-1H-pyrazole-5-carboxamido)-5-chloro-N-ethylpyrazolo[1,5-a]pyridine-7-carboxamide]
mortality at 300 ppm (Spodoptera litura): > 70%
mortality at 300 ppm (Plutella xylostella): > 70%

Cc1cc2ccnn2c(C(=O)NC2CC2)c1NC(=O)c1cc(OC2CSC2)nn1-c1ncccc1Cl [Compound 145, 6-(1-(3-chloropyridin-2-yl)-3-(thietan-3-yloxy)-1H-pyrazole-5-carboxamido)-N-cyclopropyl-5-methylpyrazolo[1,5-a]pyridine-7-carboxamide]
mortality at 300 ppm (Spodoptera litura): > 70%

Cc1cc2ccnn2c(C(=O)NCC2CC2)c1NC(=O)c1cc(Cn2nnc(C(F)(F)F)n2)nn1-c1ncccc1Cl [Compound 171, 6-(1-(3-chloropyridin-2-yl)-3-((5-(trifluoromethyl)-2H-tetrazol-2-yl)methyl)-1H-pyrazole-5-carboxamido)-N-(cyclopropylmethyl)-5-methylpyrazolo[1,5-a]pyridine-7-carboxamide]
mortality at 300 ppm (Helicoverpa armigera): > 70%
mortality at 300 ppm (Plutella xylostella): > 70%

Cc1cc2ccnn2c(C(=O)NC2(C)COC2)c1NC(=O)c1cc(Br)nn1-c1ncccc1Cl [Compound 173, 6-(3-bromo-1-(3-chloropyridin-2-yl)-1H-pyrazole-5-carboxamido)-5-methyl-N-(3-methyloxetan-3-yl)pyrazolo[1,5-a]pyridine-7-carboxamide]
mortality at 300 ppm (Helicoverpa armigera): > 70%
mortality at 300 ppm (Plutella xylostella): > 70%

CCCC(C)NC(=O)c1c(NC(=O)c2cc(OC)nn2-c2ncccc2Cl)c(C)cc2ccnn12 (stereo not drawn) [Compound 184, 6-(1-(3-chloropyridin-2-yl)-3-methoxy-1H-pyrazole-5-carboxamido)-5-methyl-N-(pentan-2-yl)pyrazolo[1,5-a]pyridine-7-carboxamide]
mortality at 300 ppm (Spodoptera litura): > 70%
mortality at 300 ppm (Plutella xylostella): > 70%

Cc1cc2ccnn2c(C(=O)NC(C)CCC(C)C)c1NC(=O)c1cc(Br)nn1-c1ncccc1Cl (stereo not drawn) [Compound 188, 6-(3-bromo-1-(3-chloropyridin-2-yl)-1H-pyrazole-5-carboxamido)-5-methyl-N-(5-methylhexan-2-yl)pyrazolo[1,5-a]pyridine-7-carboxamide]
mortality at 300 ppm (Spodoptera litura): > 70%
mortality at 300 ppm (Plutella xylostella): > 70%

CCC(C)CNC(=O)c1c(NC(=O)c2cc(OC)nn2-c2ncccc2Cl)c(C)cc2ccnn12 (stereo not drawn) [Compound 199, 6-(1-(3-chloropyridin-2-yl)-3-methoxy-1H-pyrazole-5-carboxamido)-5-methyl-N-(2-methylbutyl)pyrazolo[1,5-a]pyridine-7-carboxamide]
mortality at 300 ppm (Helicoverpa armigera): > 70%
mortality at 300 ppm (Plutella xylostella): > 70%

Cc1cc2ccnn2c(C(=O)NCCC(C)C)c1NC(=O)c1cc(Br)nn1-c1ncccc1Cl [Compound 206, 6-(3-bromo-1-(3-chloropyridin-2-yl)-1H-pyrazole-5-carboxamido)-N-isopentyl-5-methylpyrazolo[1,5-a]pyridine-7-carboxamide]
mortality at 300 ppm (Spodoptera litura): > 70%

Cc1cc2ccnn2c(C(=O)NC2CSC2)c1NC(=O)c1cc(Br)nn1-c1ncccc1Cl [Compound 207, 6-(3-bromo-1-(3-chloropyridin-2-yl)-1H-pyrazole-5-carboxamido)-5-methyl-N-(thietan-3-yl)pyrazolo[1,5-a]pyridine-7-carboxamide]
mortality at 300 ppm (Spodoptera litura): > 70%
mortality at 300 ppm (Plutella xylostella): > 70%

Cc1cc2ccnn2c(C(=O)NC2C[S+]([O-])C2)c1NC(=O)c1cc(Br)nn1-c1ncccc1Cl (stereo not drawn) [Compound 209, 6-(3-bromo-1-(3-chloropyridin-2-yl)-1H-pyrazole-5-carboxamido)-5-methyl-N-(1-oxidothietan-3-yl)pyrazolo[1,5-a]pyridine-7-carboxamide]
mortality at 300 ppm (Helicoverpa armigera): > 70%
mortality at 300 ppm (Plutella xylostella): > 70%

COc1cc(C(=O)Nc2c(C)cc3ccnn3c2C(=O)NC(C)C(F)(F)F)n(-c2ncccc2Cl)n1 (stereo not drawn) [Compound 217, 6-(1-(3-chloropyridin-2-yl)-3-methoxy-1H-pyrazole-5-carboxamido)-5-methyl-N-(1,1,1-trifluoropropan-2-yl)pyrazolo[1,5-a]pyridine-7-carboxamide]
mortality at 300 ppm (Spodoptera litura): > 70%

COc1cc(C(=O)Nc2c(C)cc3ccnn3c2C(=O)NC2(C)CC2)n(-c2ncccc2Cl)n1 [Compound 219, 6-(1-(3-chloropyridin-2-yl)-3-methoxy-1H-pyrazole-5-carboxamido)-5-methyl-N-(1-methylcyclopropyl)pyrazolo[1,5-a]pyridine-7-carboxamide]
mortality at 300 ppm (Spodoptera litura): > 70%

Cc1cc2ccnn2c(C(=O)NC(C)C(F)(F)F)c1NC(=O)c1cc(C(F)(F)F)nn1-c1ncccc1Cl (stereo not drawn) [Compound 220, 6-(1-(3-chloropyridin-2-yl)-3-(trifluoromethyl)-1H-pyrazole-5-carboxamido)-5-methyl-N-(1,1,1-trifluoropropan-2-yl)pyrazolo[1,5-a]pyridine-7-carboxamide]
mortality at 300 ppm (Spodoptera litura): > 70%
